# Tests used:
# Format in all cases: in vitro ADME
# [1] = biological target: cytochrome P450 (CYP) 3A4 enzyme (CYP3A) (Homo sapiens, UniProt P08684); test: in vitro metabolism by cytochrome P450 3A4
# Source text: (§1) Any ART agents known to inhibit or induce CYP3A, P-glycoprotein, or breast cancer resistance protein are excluded from use in this study during treatment (Period 1). For those participants who may be on a regimen including one of these medications, a regimen switch from one of the prohibited medication to an allowed medication is permitted between the screening and baseline visits. The following agents are excluded from the ART regimen during the study: HIV protease inhibitors (including low-dose ritonavir), cobicistat-containing regimens, elvitegravir, efavirenz, etravirine, and nevirapine.
# [2] = biological target: T1, CYP2C8 (Homo sapiens, UniProt P10632); test: in vitro metabolism by CYP2C8
# T1 sequence (P10632 1-490): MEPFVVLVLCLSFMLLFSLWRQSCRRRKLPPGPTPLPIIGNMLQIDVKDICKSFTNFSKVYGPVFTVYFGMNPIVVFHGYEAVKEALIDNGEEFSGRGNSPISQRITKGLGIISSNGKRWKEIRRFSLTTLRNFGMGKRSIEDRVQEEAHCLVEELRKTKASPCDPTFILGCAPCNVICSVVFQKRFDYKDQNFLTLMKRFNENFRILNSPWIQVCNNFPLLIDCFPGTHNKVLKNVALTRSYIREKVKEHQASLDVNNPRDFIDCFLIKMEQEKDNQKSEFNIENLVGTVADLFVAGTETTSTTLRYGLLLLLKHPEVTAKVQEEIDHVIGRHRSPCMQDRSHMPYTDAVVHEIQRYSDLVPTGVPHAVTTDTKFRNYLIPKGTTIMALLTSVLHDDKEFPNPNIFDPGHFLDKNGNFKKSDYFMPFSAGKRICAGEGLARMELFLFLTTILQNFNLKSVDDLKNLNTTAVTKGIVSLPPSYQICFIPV
# Source text: as §1
# [3] = biological target: P-glycoprotein (Homo sapiens, UniProt P08183); test: in vitro P-glycoprotein substrate assessment
# Source text: as §1
# [4] = biological target: CYP2D6 (Homo sapiens, UniProt P10635); test: in vitro metabolism by CYP2D6
# [5] = biological target: T2, breast cancer resistance protein (Homo sapiens, UniProt Q9UNQ0); test: in vitro breast cancer resistance protein substrate assessment
# T2 sequence (Q9UNQ0 1-655): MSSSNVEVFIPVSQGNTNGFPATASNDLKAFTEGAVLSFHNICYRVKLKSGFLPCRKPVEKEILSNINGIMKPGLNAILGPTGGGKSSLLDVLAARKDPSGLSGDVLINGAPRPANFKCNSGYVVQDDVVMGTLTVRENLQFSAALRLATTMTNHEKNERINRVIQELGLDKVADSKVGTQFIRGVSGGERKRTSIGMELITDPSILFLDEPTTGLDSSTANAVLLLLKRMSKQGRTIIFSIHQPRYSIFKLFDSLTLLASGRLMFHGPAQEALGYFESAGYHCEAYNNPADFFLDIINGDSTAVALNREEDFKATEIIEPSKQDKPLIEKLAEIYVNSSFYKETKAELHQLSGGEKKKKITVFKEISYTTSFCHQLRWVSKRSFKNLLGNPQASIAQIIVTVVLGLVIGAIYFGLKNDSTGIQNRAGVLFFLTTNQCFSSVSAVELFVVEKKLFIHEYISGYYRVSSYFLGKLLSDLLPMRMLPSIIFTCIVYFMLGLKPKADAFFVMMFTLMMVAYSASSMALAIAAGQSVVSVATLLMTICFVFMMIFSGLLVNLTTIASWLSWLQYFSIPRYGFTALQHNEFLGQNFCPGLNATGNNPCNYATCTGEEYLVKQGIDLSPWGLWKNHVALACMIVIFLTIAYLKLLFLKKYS
# Source text: as §1
# CYP2D6, sequence (P10635 whole entry): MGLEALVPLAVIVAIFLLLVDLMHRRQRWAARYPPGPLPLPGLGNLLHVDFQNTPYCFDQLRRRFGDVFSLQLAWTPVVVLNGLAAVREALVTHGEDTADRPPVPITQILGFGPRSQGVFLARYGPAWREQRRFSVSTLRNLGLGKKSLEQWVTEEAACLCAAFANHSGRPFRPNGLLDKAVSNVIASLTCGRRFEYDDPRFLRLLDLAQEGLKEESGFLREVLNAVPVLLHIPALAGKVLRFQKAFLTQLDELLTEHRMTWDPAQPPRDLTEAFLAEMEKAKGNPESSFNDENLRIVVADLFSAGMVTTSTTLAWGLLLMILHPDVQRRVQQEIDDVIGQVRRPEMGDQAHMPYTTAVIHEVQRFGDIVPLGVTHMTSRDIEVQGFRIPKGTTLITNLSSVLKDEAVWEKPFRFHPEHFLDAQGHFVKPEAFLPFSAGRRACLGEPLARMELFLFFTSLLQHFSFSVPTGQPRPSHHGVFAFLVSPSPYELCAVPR
# P-glycoprotein, sequence (P08183 whole entry): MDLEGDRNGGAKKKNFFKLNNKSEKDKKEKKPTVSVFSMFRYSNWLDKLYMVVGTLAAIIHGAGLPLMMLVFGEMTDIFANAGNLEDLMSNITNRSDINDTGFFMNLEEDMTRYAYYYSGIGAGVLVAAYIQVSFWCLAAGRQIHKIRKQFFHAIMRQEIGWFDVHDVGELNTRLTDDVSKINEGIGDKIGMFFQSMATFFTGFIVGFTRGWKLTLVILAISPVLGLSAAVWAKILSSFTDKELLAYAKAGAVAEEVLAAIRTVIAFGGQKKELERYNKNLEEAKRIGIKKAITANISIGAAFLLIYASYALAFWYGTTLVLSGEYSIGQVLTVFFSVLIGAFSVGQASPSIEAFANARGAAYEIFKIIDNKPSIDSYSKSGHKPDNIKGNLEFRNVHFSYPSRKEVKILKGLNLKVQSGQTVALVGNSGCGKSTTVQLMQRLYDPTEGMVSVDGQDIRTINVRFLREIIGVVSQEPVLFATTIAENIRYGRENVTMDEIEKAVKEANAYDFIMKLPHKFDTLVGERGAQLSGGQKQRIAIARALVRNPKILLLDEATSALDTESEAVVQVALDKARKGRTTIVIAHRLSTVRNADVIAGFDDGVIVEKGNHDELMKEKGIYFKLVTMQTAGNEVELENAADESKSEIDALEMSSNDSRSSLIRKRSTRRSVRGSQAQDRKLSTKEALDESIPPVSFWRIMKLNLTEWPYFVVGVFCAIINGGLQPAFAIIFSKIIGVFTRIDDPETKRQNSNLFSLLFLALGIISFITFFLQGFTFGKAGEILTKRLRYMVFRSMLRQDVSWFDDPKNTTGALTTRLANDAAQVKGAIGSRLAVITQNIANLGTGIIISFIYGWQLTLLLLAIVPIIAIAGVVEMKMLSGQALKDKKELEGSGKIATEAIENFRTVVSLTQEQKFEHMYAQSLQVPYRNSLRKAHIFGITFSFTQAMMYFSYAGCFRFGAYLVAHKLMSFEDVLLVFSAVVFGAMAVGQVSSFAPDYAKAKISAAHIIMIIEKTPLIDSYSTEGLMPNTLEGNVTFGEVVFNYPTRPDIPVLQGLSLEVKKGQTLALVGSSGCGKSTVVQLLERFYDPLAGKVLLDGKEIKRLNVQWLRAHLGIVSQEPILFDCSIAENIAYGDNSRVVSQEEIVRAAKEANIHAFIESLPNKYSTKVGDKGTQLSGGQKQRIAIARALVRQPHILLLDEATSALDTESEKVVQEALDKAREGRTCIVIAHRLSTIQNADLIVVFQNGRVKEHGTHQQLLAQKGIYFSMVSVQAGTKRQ
# cytochrome P450 (CYP) 3A4 enzyme (CYP3A), sequence (P08684 whole entry): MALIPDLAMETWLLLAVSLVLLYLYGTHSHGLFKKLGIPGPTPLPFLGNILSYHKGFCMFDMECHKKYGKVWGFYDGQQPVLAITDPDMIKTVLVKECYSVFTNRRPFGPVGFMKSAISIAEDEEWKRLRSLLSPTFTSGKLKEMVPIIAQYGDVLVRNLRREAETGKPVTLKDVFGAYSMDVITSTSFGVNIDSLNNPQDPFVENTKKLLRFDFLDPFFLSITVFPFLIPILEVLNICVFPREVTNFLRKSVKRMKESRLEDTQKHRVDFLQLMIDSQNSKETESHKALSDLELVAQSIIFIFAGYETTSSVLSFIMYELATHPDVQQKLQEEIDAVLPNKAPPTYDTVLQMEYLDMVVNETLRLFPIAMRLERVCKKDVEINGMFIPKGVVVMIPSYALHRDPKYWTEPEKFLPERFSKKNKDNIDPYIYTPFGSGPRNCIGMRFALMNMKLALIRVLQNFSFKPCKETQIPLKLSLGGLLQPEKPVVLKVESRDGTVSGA
smiles,measurement,setting,value
CCCCOc1nc(N)c2c(n1)N(Cc1cccc(CN3CCCC3)c1)CC(=O)N2 [compound of Formula (I)],metabolism by CYP3A4 (contribution to metabolism),[1],predominantly metabolized
same,metabolism by CYP2C8 (contribution to metabolism),[2],minor contributions
same,substrate of P-glycoprotein,[3],substrate
same,metabolism by CYP2D6 (contribution to metabolism),[4],minor contributions
same,substrate of breast cancer resistance protein,[5],substrate
